Measurements as given in US4780462A, “Antihypertensive 1,5-benzothiazepine derivatives and compositions thereof” (Kotokuki Seiya Kau Co., Ltd., priority 1986, dated 1988).

Experiments:
Guinea-pig taenia caecum = assay: Ca++-antagonistic activity (isolated guinea-pig taenia caecum); settings: Cavia porcellus, 0.05 h; Ca++-induced contraction of taenia caecum, Ca++-free Krebs Ringer; pretreatment with compound 3 minutes before; read-out: PA2 value (converted)
Protocol: Ca^++ -Antagonistic activity. Experiments are carried out according to the method of M. Ferrari (Arch. Intern. Pharmacoadyn. 174, 223 (1968) Guinea-pig taenia caecum is isolated and suspended in a bath which is filled with Ca^++ -free Krebs Ringer solution for 30 minutes. In this condition, taenia caecum is contracted by elevating Ca^++ -ion concentration of Krebs Ringer and obtained a dose-response curve against Ca^++ -ion. Pretreatment with the compound of this invention before 3 minutes, and obtained a dose-response curve under the existence of the compound of this invention.
From these two dose-response curves, PA2 value is calculated and PA2 is expressed as index of activities. (Table 1)

[1] = Acute toxicity in mice per os; settings: mouse, in vivo, po
From the text: The acute toxicity of the compounds of this invention in mice per os is as follows. (Table 4)

[2] = system: anesthetized normotensive rats; assay: Antihypertensive activity on anesthetized normotensive rats; format: in vivo; settings: dose which lowers the mean blood pressure by 15 mmHg, i.v. (femoral vein); urethane anesthetized normotensive male Wistar rats
Protocol: The antihypertensive activities of the compounds on anesthetized normotensive rats were tested according to the method of H. Sogabe.^(1) Male Wistar rats weighing 200-300 g were anesthetized with urethane (1.2 g/kg. i.v.). Blood pressure was measured by a transducer (Nihon Koden RT-5) connected the catheter inserted into the femoral artery. The test compounds in physiological saline (0.1 ml/100 g. B.W.) were injected via the femoral vein. The antihypertensive activity was assessed by comparing with MBP15 (dose which lowers the mean blood pressure by 15 mmHg, mg/kg i.v.).
(1) Hirobumi Sogabe "Jikken Kouketsuatsushou nyuumon" p227 (Eikoudo 1968).

[3] = system: isolated guinea-pig heart; assay: Coronary artery dilating activity (Rangendorf method, isolated guinea-pig heart); settings: coronary blood flow examined for 2 minutes
From the text: The coronary artery dilating activity of the compounds is estimated by Rangendorf method (Pfugers. Arch. Ges. Physiol. 62, 291 (1895)) using the isolated guinea-pig heart.

Structure (SMILES)	Kb (Guinea-pig taenia caecum) [nM]	Antihypertensive act. (M.B.P.15) [2] [µg]	maximum increased blood flow ([3]; 10 μg/heart) [mL]	maximum increased blood flow ([3]; 30 μg/heart) [mL]	other results
COc1cccc(OC)c1OCCNCCC(=O)N1CCCSc2ccccc21 [Compound 1, 5-[3-(2-(2-,6-dimethoxyphenoxy)ethylamino)-propionyl]-2,3,4,5-tetrahydro-1,5-benzothiazepine·fumarate]	813				
CC(C)c1cccc(C(C)C)c1OCCNCCC(=O)N1CCCSc2ccccc21 [Compound 3, 5-[3-(2-(2,6-diisopropylphenoxy)ethylamino)-propionyl]-2,3,4,5-tetrahydro-1,5-benzothiazepine·fumarate]		1.35			LD50 [1]: 1500 mg/kg
Cc1cccc(C)c1OCCNCCC(=O)N1CCCSc2ccccc21 [Compound 4, 5-[3-(2-(2,6-dimethylphenoxy)ethylamino)propionyl]-2,3,4,5-tetrahydro-1,5-benzothiazepine·fumarate]	102		7.2	19.2	
O=C(CCNCCSc1ccc([N+](=O)[O-])cc1)N1CCCSc2ccccc21 [Compound 5, 5-[3-(2-(4-nitrophenylthio)ethylamino)propionyl]-2,3,4,5-tetrahydro-1,5-benzothiazepine·fumarate]	97.7	2.0			
Nc1cccc(OCCNCCC(=O)N2CCCSc3ccccc32)c1 [Compound 6, 5-[3-(2-(3-aminophenoxy)ethylamino)propionyl]-2,3,4,5-tetrahydro-1,5-benzothiazepine·fumarate]			4.6	6.0	
O=C(CCNCCOc1cccc([N+](=O)[O-])c1)N1CCCSc2ccccc21 [Compound 7, 5-[3-(2-(3-nitrophenoxy)ethylamino)propionyl]-2,3,4,5-tetrahydro-1,5-benzothiazepine·fumarate]	245	4.2			
COc1ccc(OCCNCCC(=O)N2CCCSc3ccccc32)cc1 [Compound 8, 5-[3-(2-(4-methoxyphenoxy)ethylamino)propionyl]-2,3,4,5-tetrahydro-1,5-benzothiazepine·fumarate]	603				
Cc1cccc(OCCNCCC(=O)N2CCCSc3ccccc32)c1 [Compound 11, 5-[3-(2-(3-methylphenoxy)ethylamino)propionyl]-2,3,4,5-tetrahydro-1,5-benzothiazepine·fumarate]		34.7		16.5	maximum increased blood flow ([3]; 3 μg/heart): 7.7 mL
Cc1cc(C)c(OCCNCCC(=O)N2CCCSc3ccccc32)c(C)c1 [Compound 12, 5-[3-(2-(2,4,6-trimethylphenoxy)ethylamino)propionyl]-2,3,4,5-tetrahydro-1,5-benzothiazepine·fumarate]	55		11.3	18.3	
O=C(CCNCCOc1ccc(Cl)cc1Cl)N1CCCSc2ccccc21 [Compound 13, 5-[3-(2-(2,4-dichlorophenoxy)ethylamino)propionyl]-2,3,4,5-tetrahydro-1,5-benzothiazepine·fumarate]	126	3.5			
Nc1ccccc1OCCNCCC(=O)N1CCCSc2ccccc21 [Compound 15, 5-[3-(2-(2-aminophenoxy)ethylamino)propionyl]-2,3,4,5-tetrahydro-1,5-benzothiazepine·fumarate]				2.0	LD50 [1]: 374 mg/kg
O=C(CCNCCOc1ccc([N+](=O)[O-])cc1)N1CCCSc2ccccc21 [Compound 16, 5-[3-(2-(4-nitrophenoxy)ethylamino)propionyl]-2,3,4,5-tetrahydro-1,5-benzothiazepine·fumarate]			4.2		
Cc1cccc(C)c1SCCNCCC(=O)N1CCCSc2ccccc21 [Compound 17, 5-[3-(2-(2,6-dimethylphenylthio)ethylamino)propionyl]-2,3,4,5-tetrahydro-1,5-benzothiazepine·fumarate]		9.3			
